The test system of the experiment is P. falciparum 3D7 growth, pLDH absorbance. The experiment is described as follows: P. falciparum 3D7 growth inhibition, dose response, strain 3D7 (AID 2305).

Here are results for 63 compounds from PubChem BioAssay AID2305 (GlaxoSmithKline (GSK), 2010).

`Cc1ccc(-c2cnc(N)c3cc(-c4ccnc(N)n4)ccc23)cc1`: the IC50 (usually the concentration at which inhibition is half-maximal) was determined as 810 nM.

Turning to `Cc1ccc(N(CCC(=N)N)Cc2ccccc2)cc1`, the IC50 was 660 nM. Next, `Cc1cc(=O)c(-c2ccc(Oc3ccc(C(F)(F)F)cc3)cc2)c(C)n1O`: 600 nM; `O=C(NCCN1CCCC1)N1CCCN(c2ncnc3cc(-c4ccc(F)cc4)sc23)CC1`: 900 nM; `O=S1(=O)C=C(c2ccccc2)CC1`: 200 nM. To `CC(C)n1cc2c(ccc3nc(N)nc(N)c32)n1` belongs 40 nM; to `O=C(Nc1cccc(-c2cccc(-c3nc4ccc(F)cc4[nH]3)c2)c1)c1cnc[nH]1`, 460 nM. `O=C(Nc1cccc(F)c1)NC1CCN(CCCCCNC(=O)[C@@H]2C[C@H]2c2ccc(Cl)c(Cl)c2)CC1` yielded an IC50 of 760 nM. `O=C(Nc1ccc(Oc2ccccc2)cc1)N(Cc1ccc(-c2cccc(CN3CCNCC3)c2)cc1)C1CCN(Cc2ccccc2)CC1` yielded an IC50 of 880 nM. `Cc1nc(-c2ccc(-c3ccc(C(=O)Nc4ccc(I)c(OCC5CCCN5C)c4)cc3)c(C)c2)no1` (stereo not drawn) had an IC50 of 30 nM.

`Oc1ccc2[nH]cc(C3=CCN(CCc4ccccc4)CC3)c2c1`: the IC50 was determined as 310 nM. Next, `O=C(Nc1cccc(CN2CCCN(Cc3cccc(F)c3)CC2)c1)c1ccc(Cl)c(Cl)c1`: 920 nM.

With `Cc1cc(Cl)ccc1NC(=O)NCCCCCN1CCC(c2c[nH]c3ccccc23)CC1`, the IC50 worked out at 1010 nM.

Regarding `CC(CN(C)C)C(=O)Nc1ccc(-c2ccc(-c3nc4ccccc4[nH]3)s2)cc1` (stereo not drawn), the IC50 was 720 nM.

Compound `O=C(Nc1ccc(Cl)cc1)c1ccc(CN2CCCN(Cc3ccsc3)CC2)cc1` displayed a half-inhibitory concentration (IC50) of 860 nM. On to `O=C(NC=Nc1cc([N+](=O)[O-])c(-c2ccncc2)n1-c1ccccc1)c1cccc(O)c1`, for which the IC50 is 330 nM. Compared with the last compound, the IC50 is about 2.6-fold lower. `C=CCN1C(=O)C(=Cc2cc(Br)ccc2O)SC1=Nc1ccccc1` showed a concentration for half-maximal inhibition (IC50) of 900 nM. As to `FC(F)(F)c1ccc2nc(-c3ccc(-c4cccc(CNCCc5ccncc5)c4)s3)[nH]c2c1`, the 50% inhibitory concentration (IC50) is 120 nM. To `CCC(C)NS(=O)(=O)c1ccc2nc(Nc3ccc(C)c(Cl)c3)n(C3CCCCC3)c2c1` (stereo not drawn) belongs 510 nM. `O=c1cc(NCCCNC2CCc3ccc(Cl)cc32)[nH]c2ccccc12` (stereo not drawn) gave an IC50 of 860 nM. The compound `CC(C)CCN1CCC(Oc2cccc(NC(=O)c3ccc(C(F)(F)F)cc3)c2)CC1` gave an IC50 of 630 nM. The IC50 values of the last two compounds are within 1.5-fold of each other.

Take `CC(C)CCn1c(Sc2ccc(C#N)c([N+](=O)[O-])c2)nnc1-c1ccc(Cl)cc1`: the concentration for half-maximal inhibition (IC50) came to 870 nM. This IC50 and that of the compound before are within 1.5-fold of each other.

In turn, `COc1cc(Cc2cnc(N)nc2N)cc(OCCCCC2SC(=O)NC2=O)c1OC` (stereo not drawn) had a half-maximal inhibitory concentration (IC50) of 30 nM. This IC50 is about 29-fold lower than that of the compound before. To `O=C(Oc1ccc(Cl)cc1C(=O)Nc1ccc([N+](=O)[O-])cc1Cl)c1ccccc1` belongs 910 nM; to `COc1cc2nccc(Nc3ccc4c(cnn4Cc4ccccc4F)c3)c2cc1OC`, 400 nM; to `O=C(/C=C/c1ccc(Cl)c(Cl)c1)NCCCCCN1CCC(NC(=O)c2ccc([N+](=O)[O-])cc2)CC1`, 670 nM. As to `Cc1cc(=O)c2cc(Oc3cccc(OC(F)(F)F)c3)ccc2[nH]1`, the IC50 was found to be 860 nM. Next, `Cc1ccnc(Nc2nc(-c3ccccn3)cs2)c1`: 1000 nM. The compound `O=c1ccc2ccc(F)c3c2n1CC3CN1CCC(NCc2cccc(-c3cccs3)c2)CC1` (stereo not drawn) gave an IC50 of 830 nM. To `COc1ccccc1C1CCN(C2CCC(NC(=O)/C=C/c3ccc(C(F)(F)F)cc3)CC2)CC1` (stereo not drawn) belongs 1160 nM.

For the compound `Cc1cc(NC(=O)Nc2ccc3ccn(C)c3c2)c2ccccc2n1`, the IC50 worked out at 210 nM. Next, `CON(C)C(=O)[C@@H](CCCCNC(=O)OCc1ccccc1)NC(=O)OC(C)(C)C`: 190 nM; `COc1ccc(CN2CCC(NCc3cccc(C(F)(F)F)c3)CC2)cc1`: 750 nM. `Cc1cccc2[nH]c(-c3ccc(-c4ccc(CNCc5ccc(S(C)(=O)=O)cc5)cc4)cc3)nc12`: the IC50 was 750 nM. Next, `COc1ccc(CNCc2ccc(-c3ccc(-c4nc5ccc(C(F)(F)F)cc5[nH]4)s3)cc2)cc1`: 170 nM. Consider `COCCNCc1ccc(-c2ccc(CN(C(=O)NC3CCCCC3)C3CCN(Cc4ccccc4)CC3)cc2)cc1`, for which the concentration for half-maximal inhibition (IC50) stood at 960 nM. This IC50 lies about 5.6-fold higher than the previous one. Next, `NC1=NC2(CCCCC2)N(OCCCCCCCCNc2nc(N)nc(N)n2)C(N)=N1`: 60 nM; `Cc1cccc2[nH]c(-c3cccc(-c4ccc(CNCCNC(=O)c5ccnn5C)cc4)c3)nc12`: 170 nM. `CCCNc1ccc(-c2cc(C(N)=O)c3[nH]cc(C4CCN(S(=O)(=O)CC)CC4)c3c2)cn1` came in with an IC50 of 820 nM. As to `CN(C)CCNC(=O)c1cc2c(-c3ccc(Cl)cc3)nn(C)c2s1`, the IC50 was found to be 670 nM.

`CCc1c[nH]c2c(N(c3ccccc3)S(C)(=O)=O)cc(C(=O)N[C@@H](Cc3ccccc3)[C@H](O)CNCc3cccc(C(F)(F)F)c3)cc12` came in with an IC50 of 1000 nM. This IC50 and that of the compound before are within 1.5-fold of each other. To `O=C(NCC1CCC1)c1cnc(Nc2cccc(Cl)c2)nc1N1CCC1` belongs 860 nM; to `Cc1nc(N)nc(N)c1-c1ccc(Br)c([N+](=O)[O-])c1`, 200 nM.

In turn, `O=C(NCC1CCC(CNCCCc2ccccc2)CC1)Nc1ccc(Cl)c(Cl)c1` (stereo not drawn) yielded an IC50 of 770 nM.

In turn, `COc1c(I)cc(Cc2cnc(N)nc2N)cc1I` displayed an IC50 of 930 nM. For the compound `Cc1cccc2[nH]c(-c3cccc(-c4cccc(NC(=O)C(C)CN5CCN(C)CC5)c4)c3)nc12` (stereo not drawn), the IC50 amounted to 540 nM.

In turn, `Cc1ccc2[nH]c(-c3ccccc3N)cc2c1` displayed an IC50 of 920 nM. Next, `CC(C)[C@H](NC(=O)c1c(CN2CCC(N3CCCCC3)CC2)c(-c2ccccc2)nc2cc(O)ccc12)c1ccccc1`: 740 nM; `COc1ccc2nc(NC3=NC(c4ccccn4)(c4ccccn4)C(=O)N3C)[nH]c2c1`: 590 nM; `COc1cc2c(cc1OC)C(C(=O)c1ccccc1)=NCC2`: 1090 nM. Next, `CN(C)CCN(Cc1ccccc1)c1ccc([N+](=O)[O-])cc1C(F)(F)F`: 780 nM. Next, `COc1ccccc1CNC(=O)c1ccc(N2CCN(c3ccncc3)CC2)cn1`: 1360 nM. For `CCCc1ccc(S(=O)(=O)NC2CCN(C(=O)Nc3ccc(I)cc3)CC2)cc1`, the 50% inhibitory concentration (IC50) came to 870 nM. Next, `COc1ccc2ncc(C#N)c(CCN3CCC(NCc4ccc5c(c4)NC(=O)CO5)CC3)c2c1`: 590 nM. With `Nc1nc2c(ncn2COC2COP(=O)(O)OC2)c(=O)[nH]1` (stereo not drawn), the IC50 was determined as 450 nM. To `CN(CCN)Cc1cccc(-c2ccc(-c3nc4ccc(C(F)(F)F)cc4[nH]3)s2)c1` belongs 1000 nM; to `C[C@H](NC(=O)C1CCCC1)C(=O)Nc1ccc(-c2ccc(-c3nc4ccc(C(F)(F)F)cc4[nH]3)cc2)cc1`, 270 nM; to `COc1ccc2nc(-c3ccccc3)cc(NN=Cc3ccc([N+](=O)[O-])cc3)c2c1`, 150 nM. Compound `CCCCCCCN1CCC(CCNc2ccnc3ccc(OC)cc23)CC1` registered an IC50 of 950 nM. This IC50 lies about 6.3-fold higher than the previous one. `Cc1cc(N(C)CCCN(C)C)nc(Nc2ccc(Br)cc2)n1` had an IC50 of 640 nM. This IC50 and that of the compound before are within 1.5-fold of each other. Next, `Nc1ccc(-c2ccc(NC(=O)Nc3cc(C(F)(F)F)ccc3F)cc2)cn1`: 660 nM; `CCOc1cc(C(=O)NC2CCN(Cc3ccccc3)CC2)ccc1-c1nc2ccc(Cl)cc2[nH]1`: 430 nM.

With `CCN(CC)CCc1ccc2c(=O)cc(CCc3cccc(F)c3F)n(CC(=O)N(C)Cc3ccc(-c4ccc(C(F)(F)F)cc4)cc3)c2c1`, the IC50 worked out at 860 nM.
